Measured values as given in paper PMC4384635, “Autoinhibition of Bruton's tyrosine kinase (Btk) and activation by soluble inositol hexakisphosphate” (eLife, 2015).

Columns and labels:
[1] = biological target: T1, Bruton's tyrosine kinase (Btk) (Bos taurus, UniProt Q3ZC95); test: ITC; assay type: binding
T1 construct: PH-TH module (residues 1 to 172)

[2] = biological target: T2, Bruton's tyrosine kinase (Btk) (Bos taurus, UniProt Q3ZC95, DEL171-383/L542M/S543T/V555T/R562K/S564A/P565S); assay type: binding
T2 construct: PH-TH-kinase construct (residues 1 to 170 connected to residues 384 to 659)

[3] = biological target: PH-TH module of bovine Btk (residues 1 to 172) (bovine) (UniProt Q3ZC95); test: not stated; preliminary studies; dimerization of the PH-TH module induced by IP6; dimer to monomers
[4] = biological target: Src-like module of mouse Btk (SH3-SH2-kinase module, residues 214 to 659) (mouse) (UniProt P35991); test: cross-linking; peak B; disuccinimidyl glutarate and PAGE analysis; results not shown
[5] = biological target: Src-like module of mouse Btk (SH3-SH2-kinase module, residues 214 to 659) (mouse) (UniProt P35991); test: SEC; peak B from mono-Q, HiPrep S-200 16/60, 25 mM Tris·Cl pH 8.5, 25 mM NaCl, 5 mM DTT, 4°C
[6] = biological target: T3, Bruton's tyrosine kinase (Btk) (Bos taurus, UniProt Q3ZC95, N24D/R28C); test: ITC with the canonical-site mutant (also printed as R28C/N24D and R28C/N24E); assay type: binding
T3 construct: PH-TH module (residues 1 to 172)

[7] = biological target: T1, Bruton's tyrosine kinase (Btk); test: ITC; crystal structure at […] Å; also activates full-length Btk (EC50 around […]); assay type: binding

T1 sequence (Q3ZC95 1-172): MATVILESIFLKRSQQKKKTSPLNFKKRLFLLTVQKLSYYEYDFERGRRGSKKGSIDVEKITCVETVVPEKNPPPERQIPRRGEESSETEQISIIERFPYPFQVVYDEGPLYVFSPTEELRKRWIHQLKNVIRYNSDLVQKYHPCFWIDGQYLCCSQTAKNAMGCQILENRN
T2 sequence (Q3ZC95 entry or part of it DEL171-383/L542M/S543T/V555T/R562K/S564A/P565S): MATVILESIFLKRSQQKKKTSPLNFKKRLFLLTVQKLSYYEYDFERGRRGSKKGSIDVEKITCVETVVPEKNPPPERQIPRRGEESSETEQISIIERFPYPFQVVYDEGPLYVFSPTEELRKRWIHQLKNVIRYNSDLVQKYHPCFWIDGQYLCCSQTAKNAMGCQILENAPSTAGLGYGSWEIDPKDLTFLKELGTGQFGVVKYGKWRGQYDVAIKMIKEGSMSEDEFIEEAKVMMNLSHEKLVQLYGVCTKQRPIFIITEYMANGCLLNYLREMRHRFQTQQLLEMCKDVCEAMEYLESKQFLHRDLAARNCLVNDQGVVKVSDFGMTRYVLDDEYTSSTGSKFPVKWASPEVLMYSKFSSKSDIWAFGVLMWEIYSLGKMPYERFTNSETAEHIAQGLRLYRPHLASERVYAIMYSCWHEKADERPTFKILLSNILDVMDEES
T3 sequence (Q3ZC95 1-172 N24D/R28C): as the sequence (Q3ZC95 1-172) above, with N24D, R28C counted along it

How did the Kd [1] turn out when `O=P(O)(O)O[C@H]1[C@H](O)[C@@H](OP(=O)(O)O)[C@H](OP(=O)(O)O)[C@@H](OP(=O)(O)O)[C@H]1O` [IP4, inositol tetrakisphosphate] was run?
Its Kd is 26 ± 6 nM.

With `Cc1c(NC(=O)c2ccc(C(C)(C)C)cc2)cccc1-c1cn(C)c(=O)c(Nc2ccc(C(=O)N3CCOCC3)cc2)n1` [CGI1746] as the compound, how does the “crystal structure at 1.7 Å” value [2] read?
The value was “structure of the PH-TH-kinase with a bound ATP-competitive inhibitor (CGI1746”.

How did the Kd [3] turn out when “PH-TH module of bovine Btk (residues 1 to 172) (from UniProt Q3ZC95 1-172) (domain or fragment)” was run?
Its Kd is over 100000 nM.

How did the stoichiometry N [4] turn out when “Src-like module of mouse Btk (SH3-SH2-kinase module, residues 214 to 659) (from UniProt P35991 214-659) (domain or fragment)” was run?
Its stoichiometry N is 2.

And the stoichiometry N [5]?
Its stoichiometry N is 2.

For `O=P(O)(O)O[C@H]1[C@H](OP(=O)(O)O)[C@@H](OP(=O)(O)O)[C@H](OP(=O)(O)O)[C@@H](OP(=O)(O)O)[C@H]1OP(=O)(O)O` [IP6, inositol hexakisphosphate], which Kd [6] is on record?
The Kd was 4760 ± 700 nM.

And the Kd [7]?
The Kd was 238 ± 32 nM.
